Results: PubChem BioAssay (NCI)
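The compound was tested at five concentrations on cells cultured in 96-well plates, with a 48-hour exposure period. TGI: concentration producing complete growth inhibition.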

Assays:
Assay in all cases: DTP human tumour cell line panel, 48 h
786-0 renal = test system: 786-0 renal
A498 renal = test system: A498 renal
A549 NSCLC = test system: A549 NSCLC
ACHN renal = test system: ACHN renal
BT-549 breast = test system: BT-549 breast
CAKI-1 renal = test system: CAKI-1 renal
CCRF-CEM leukemia = test system: CCRF-CEM leukemia
COLO 205 colon = test system: COLO 205 colon
DU-145 prostate = test system: DU-145 prostate
EKVX NSCLC = test system: EKVX NSCLC
HCT-116 colon = test system: HCT-116 colon
HCT-15 colon = test system: HCT-15 colon
HL-60(TB) leukemia = test system: HL-60(TB) leukemia
HOP-62 NSCLC = test system: HOP-62 NSCLC
HOP-92 NSCLC = test system: HOP-92 NSCLC
HS 578T breast = test system: HS 578T breast
HT29 colon = test system: HT29 colon
IGROV1 ovarian = test system: IGROV1 ovarian
K-562 leukemia = test system: K-562 leukemia
KM12 colon = test system: KM12 colon
LOX IMVI melanoma = test system: LOX IMVI melanoma
M14 melanoma = test system: M14 melanoma
MALME-3M melanoma = test system: MALME-3M melanoma
MCF7 breast = test system: MCF7 breast
MDA-MB-231 breast = test system: MDA-MB-231 breast
MDA-MB-435 = test system: MDA-MB-435
MDA-N = test system: MDA-N
MOLT-4 leukemia = test system: MOLT-4 leukemia
NCI-H226 lung = test system: NCI-H226 lung
NCI-H23 lung = test system: NCI-H23 lung
NCI-H460 lung = test system: NCI-H460 lung
NCI-H522 lung = test system: NCI-H522 lung
NCI/ADR-RES ovarian = test system: NCI/ADR-RES ovarian
OVCAR-3 ovarian = test system: OVCAR-3 ovarian
OVCAR-4 ovarian = test system: OVCAR-4 ovarian
OVCAR-5 ovarian = test system: OVCAR-5 ovarian
OVCAR-8 ovarian = test system: OVCAR-8 ovarian
PC-3 prostate = test system: PC-3 prostate
RPMI-8226 leukemia = test system: RPMI-8226 leukemia
RXF 393 renal = test system: RXF 393 renal
SF-268 CNS = test system: SF-268 CNS
SF-295 CNS = test system: SF-295 CNS
SF-539 CNS = test system: SF-539 CNS
SK-MEL-2 melanoma = test system: SK-MEL-2 melanoma
SK-MEL-28 melanoma = test system: SK-MEL-28 melanoma
SK-MEL-5 melanoma = test system: SK-MEL-5 melanoma
SK-OV-3 ovarian = test system: SK-OV-3 ovarian
SN12C renal = test system: SN12C renal
SNB-19 CNS = test system: SNB-19 CNS
SNB-75 CNS = test system: SNB-75 CNS
SR leukemia = test system: SR leukemia
SW-620 colon = test system: SW-620 colon
T-47D breast = test system: T-47D breast
TK-10 renal = test system: TK-10 renal
U251 CNS = test system: U251 CNS
UACC-257 melanoma = test system: UACC-257 melanoma
UACC-62 melanoma = test system: UACC-62 melanoma
UO-31 renal = test system: UO-31 renal

Measured: TGI

CCOC(=O)C1(CC(=O)O)CCCC1=O (stereo not drawn)
> 100 µM: all assays above
